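Five compound concentrations were applied to cells in 96-well plates for 48 hours; endpoints were derived by simple linear interpolation of the resulting dose-response curve. GI50 = concentration required for 50% inhibition of growth. TGI: total growth inhibition.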 Where a SMILES comes first, the peptide text is derived from it. [ ]: non-standard residue; d: D form. The star is where a group is joined. ξ: configuration not given here. X37 = O=C(OCc1ccccc1)[C@@H]1CCC[C@H]1N*; Fmoc = O=C(OCC1c2ccccc2-c2ccccc21)*; ξW = NC(Cc1c[nH]c2ccccc12)C(=O)O; ξF = NC(Cc1ccccc1)C(=O)O; Boc = CC(C)(C)OC(=O)*; ξK = NCCCCC(N)C(=O)O; ξT = CC(O)C(N)C(=O)O; OBn = c1ccc(CO*)cc1; Bn = c1ccc(C*)cc1; tBu = CC(C)(C)*
How the values were obtained:
Test in all cases: NCI anticancer screen, dose series, 48 h
[1] = test system: 786-0 renal
[2] = test system: A549 NSCLC
[3] = test system: BT-549 breast
[4] = test system: IGROV1 ovarian
[5] = test system: KM12 colon
[6] = test system: PC-3 prostate
[7] = test system: SR leukemia
[8] = test system: U251 CNS
[9] = test system: UO-31 renal
[10] = test system: SN12C renal
[11] = test system: HS 578T breast

Structure (SMILES)	TGI [1] [µM]	TGI [2] [µM]	TGI [3] [µM]	TGI [4] [µM]	TGI [5] [µM]	TGI [6] [µM]	TGI [7] [µM]	TGI [8] [µM]	TGI [9] [µM]	TGI [10] [µM]	TGI [11] [µM]	GI50 [9] [µM]
COC(=O)CP1(=O)OC2C(C3CCC2(C)C3(C)C)N1c1cc(C(F)(F)F)cc(C(F)(F)F)c1 (stereo not given)	41.7	> 100	71.8	> 100	54.7	74.9	62.6	> 100	> 100			
CC1(C)COC(c2cccc(C3=NC(C)(C)CO3)c2)=N1	> 100	> 100	> 100	> 100	> 100	> 100	> 100	> 100	> 100			
Cc1cc2nc3c(C#N)c(-c4ccccc4)/c(=C\Nc4cccc(C(F)(F)F)c4)c(=O)n3c2cc1C	> 100	> 100	> 100		> 100	> 100		> 100	> 100	> 100		
CC1(C(O)c2ccccc2)CN(C(C)(C)C)C(=O)/C1=C\Sc1ccccc1 (stereo not given)	> 100	> 100	> 100	> 100	> 100	> 100	> 100	> 100	> 100	> 100		
CC1(c2cccc(C3CCC4(C=CC3=O)OCCO4)c2)OCCO1 (stereo not given)	11	34		32.7	33.4	31.1	12.5	33.8	12.7	27.7	41.8	
CCC(=O)O[C@@H]1C2C(OC(C)=O)C34COC(C)([C@@H]3C3C(C[C@]3(C)OC(C)=O)[C@@H](OC(=O)c3ccccc3)C4=O)[C@H](OC(C)=O)[C@@]2(OC(C)=O)C[C@@H]1C (stereo not given in full)	29.2	> 100		40	> 100		> 100	46	> 100	> 100		
CC(=O)OC(C)(C)C1CCC(C)(C(O)COc2ccc(CCNC(=O)c3ccccc3)cc2)O1 (stereo not given)	> 100	> 100		> 100	> 100		> 100	> 100	> 100	> 100		
CCOC(=O)Cc1csc(/N=C\c2c(O)c3ccccc3oc2=O)n1	> 100	> 100		> 100	> 100	> 100	52	> 100	> 100		> 100	
CC(=O)OCCOCNC(=S)N/N=C(\C)c1ccco1	> 100	> 100		> 100	> 100			> 100	> 100	> 100		
CCOC(=O)[C@H]1Nc2ccc(O)cc2C2c3ccccc3CC21 (stereo not given in full)	> 100	> 100		> 100	> 100			> 100	> 100	> 100		
Cc1cccc(Nc2cn(CCOc3ccccc3)c(=O)[nH]c2=O)c1	> 100	61.9		54.9	> 100	72.3	> 100	> 100	> 100	81.7	> 100	
CCCCc1ccc(N2C(=O)c3cc(C)cnc3S2(=O)=O)cc1	> 100	> 100		> 100	> 100	> 100	> 100	> 100	> 100	> 100	> 100	
CC(OC(C)(C)C)C(NC(=O)C(CCCCNC(=O)OC(C)(C)C)NC(=O)C(Cc1c[nH]c2ccccc12)NC(=O)C(Cc1ccccc1)NC(=O)OCC1c2ccccc2-c2ccccc21)C(=O)NC(Cc1ccccc1)C(=O)N[C@@H]1CCC[C@H]1C(=O)OCc1ccccc1 (stereo not given in full) (Fmoc-[ξF][ξW][ξK](Boc)[ξT](tBu)[ξF]-X37)	> 100	> 100		> 100	> 100	> 100	> 100	> 100	> 100	> 100	> 100	
COc1ccc2cc(C(=O)NCCc3ccccc3)ccc2c1OC	> 100	> 100		> 100		> 100	> 100	> 100		> 100	> 100	
Cc1ccc(S(=O)/C=C(\NC(=O)OCc2ccccc2)C(F)(F)F)cc1 (stereo not given)	> 100	> 100	> 100	> 100	> 100	> 100	> 100	55.2	73.4	> 100		
CC(C)CC(NC(=O)C(Cc1ccccc1)NC(=O)C(COCc1ccccc1)NC(=O)OC(C)(C)C)C(=O)OCc1ccccc1 (stereo not drawn) (Boc-Ser(Bn)-Phe-Leu-OBn; configuration not given here)	30.8			31.8		57.6	44.3	53.2	> 100	63.9		

Structure (SMILES)	TGI [1] [µM]	TGI [2] [µM]	TGI [3] [µM]	TGI [4] [µM]	TGI [5] [µM]	TGI [6] [µM]	TGI [7] [µM]	TGI [8] [µM]	TGI [9] [µM]	TGI [10] [µM]	TGI [11] [µM]	GI50 [9] [µM]
OC(Cn1cncn1)(Cn1cncn1)c1ccc(Cl)cc1Cl	> 100	> 100		> 100	> 100		> 100	> 100	> 100	> 100		
CC1OC(OP(=O)(OCc2ccccc2)OCc2ccccc2)C(OC(=O)c2ccccc2)C(OC(=O)c2ccccc2)C1I (stereo not given)	> 100	> 100		> 100	> 100		80.7	> 100	> 100	52.5		
CC(=O)OC1COC(N2C(=O)C(=O)c3cc(Br)c([N+](=O)[O-])cc32)C(OC(C)=O)C1OC(C)=O (stereo not given)	> 100	> 100		> 100	> 100		> 100	> 100		> 100		
CCCCCCc1cc(C=O)sc1-c1ccc(-c2sc(-c3ccc(-c4ccc(-c5cc(CCCCCC)c(-c6ccc(-c7sc(C=O)cc7CCCCCC)s6)s5)s4)s3)cc2CCCCCC)s1	> 100	> 100	> 100	> 100	> 100	> 100	> 100	> 100	> 100	> 100		
CCC1OC2C(CC=C(C)C)=C3OC(C)(O)C(C)(CC)C(O)C3=C3OC(=O)C=C1C32 (stereo not given)	> 100	> 100	71		> 100	> 100		> 100	> 100			
Cn1cc(C(=O)C2CCCCC2)ccc1=O	> 100	> 100		> 100	> 100		> 100	> 100	> 100	> 100		
C[C@H](NC(=O)OC1C2C=CC(O)C1CC2)c1ccccc1 (stereo not given in full)	> 100	> 100		> 100	> 100		46.2	> 100	> 100	> 100		
COc1ccc(NS(=O)C2CCCCC2)cc1 (stereo not given)	> 100	> 100		> 100	> 100		> 100	> 100	> 100	> 100	> 100	
O=Cc1cc(O)c(O)c(O)c1-c1c(C=O)cc(O)c(O)c1O	> 100	> 100		> 100	> 100		> 100	> 100	> 100	> 100		
Cc1c(Cl)cccc1NC(=O)C(=O)C1C(=O)NC(=O)NC1=O	> 100	> 100		> 100	> 100		> 100	> 100	> 100	> 100		
CC(=O)c1ccc2c(c1)CC1(C2)Cc2cc3c(cc2C1)C(=O)CC3 (stereo not given)	20.9	29.2		39.2	7.83	17.8	0.963	34	66.9	> 100	> 69.2	
CCOC(=O)/C(O)=C(\C=N\C(=S)Nc1ccc(Cl)c(Cl)c1)C(=O)OCC	> 100	> 100		> 100	> 100	> 100	> 100	> 100	> 100	> 100	> 100	
C(=N\NC1=NCCCN1)/c1ccc(-c2cn3cc(/C=N/NC4=NCCCN4)ccc3n2)cc1	> 100	> 100	> 100	> 100	> 100	> 57.3	> 29	> 100	> 100	> 100		
N#Cc1nn(-c2ccc(Cl)cc2)c(N)c2c(=N)n3nc(-c4ccccc4)cc3nc12	> 100	> 42.1		> 32	> 100		10.7	> 55.8	98.5	> 100		31.5
C=C1C(=O)O[C@H]2C1C[C@@H](O)[C@@]1(C)OC1CC[C@@]1(C)O[C@H]21 (stereo not given in full)	40.9	> 100			53.2	83.9	39.8	> 100	32.5	42.4	98.8	
N#CC(C(=O)c1ccccc1F)c1nc2cc(C(F)(F)F)ccc2s1 (stereo not given)	60.5		69.4	> 100	> 100			> 100		67.2		

— PubChem BioAssay (NCI)
